Assay results taken from ChEMBL document CHEMBL5463728, “Data for DCP probe BAY-6096” (2023).
Values belong to the molecule of their own block, whether it stands above or below them.

Key:
[1] = species on record: Homo sapiens; test: Inhibition of Nicotinic Acetylcholine at compound concentration of 10.0 uM in the Eurofins-Panlabs radioligand binding assay (Eurofins_assay_258590); format: protein-complex assay; details: Compound concentration 10.0 uM
[2] = molecular target: Carbonic anhydrase 2 (Homo sapiens) (UniProt P00918); test: Inhibition of Carbonic Anhydrase II at compound concentration of 10.0 uM in the Eurofins-Panlabs enzyme assay (Eurofins_assay_112020); parameters: substrate with concentration; details: Compound concentration 10.0 uM
[3] = molecular target: Phosphodiesterase 3 (Homo sapiens) (UniProt Q14432+Q13370); test: Inhibition of Phosphodiesterase PDE3 at compound concentration of 10.0 uM in the Eurofins-Panlabs enzyme assay (Eurofins_assay_152000); format: protein assay; parameters: substrate with concentration 1.01 uM [3H] cAMP + cAMP, incubation time 20 min, incubation temperature 25 C; details: Compound concentration 10.0 uM
[4] = molecular target: Thromboxane-A synthase (Homo sapiens) (UniProt P24557); test: Inhibition of Thromboxane Synthase at compound concentration of 10.0 uM in the Eurofins-Panlabs enzyme assay (Eurofins_assay_194020); parameters: substrate with concentration; details: Compound concentration 10.0 uM
Thromboxane-A synthase (Homo sapiens), sequence (P24557 whole entry): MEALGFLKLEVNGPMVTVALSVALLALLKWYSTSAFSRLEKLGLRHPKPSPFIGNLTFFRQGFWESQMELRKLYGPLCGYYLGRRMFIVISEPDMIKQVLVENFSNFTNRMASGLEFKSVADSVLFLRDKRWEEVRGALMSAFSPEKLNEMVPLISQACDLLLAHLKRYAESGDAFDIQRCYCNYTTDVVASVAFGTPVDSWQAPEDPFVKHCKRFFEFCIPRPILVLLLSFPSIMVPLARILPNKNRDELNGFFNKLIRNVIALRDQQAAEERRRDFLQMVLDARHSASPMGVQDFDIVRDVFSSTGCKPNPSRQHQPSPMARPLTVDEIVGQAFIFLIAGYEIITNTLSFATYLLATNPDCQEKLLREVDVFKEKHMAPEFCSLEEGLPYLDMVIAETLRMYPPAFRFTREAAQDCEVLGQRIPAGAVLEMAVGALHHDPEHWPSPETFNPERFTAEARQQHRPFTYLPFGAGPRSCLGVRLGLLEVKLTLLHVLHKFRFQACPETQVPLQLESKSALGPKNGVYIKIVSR

[5] = molecular target: Monoamine oxidase B (MAO-B) (Homo sapiens, UniProt P27338); test: Inhibition of Monoamine Oxidase MAO-B at compound concentration of 10.0 uM in the Eurofins-Panlabs enzyme assay (Eurofins_assay_140120); parameters: substrate with concentration 50 uM Kynuramine, incubation time 60 min, incubation temperature 37 C; details: recombinant human MAO-B expressed in insect Hi5 cells, probe Kynuramine (50 uM), compound concentration 10 uM
Monoamine oxidase B (MAO-B), sequence (P27338 whole entry): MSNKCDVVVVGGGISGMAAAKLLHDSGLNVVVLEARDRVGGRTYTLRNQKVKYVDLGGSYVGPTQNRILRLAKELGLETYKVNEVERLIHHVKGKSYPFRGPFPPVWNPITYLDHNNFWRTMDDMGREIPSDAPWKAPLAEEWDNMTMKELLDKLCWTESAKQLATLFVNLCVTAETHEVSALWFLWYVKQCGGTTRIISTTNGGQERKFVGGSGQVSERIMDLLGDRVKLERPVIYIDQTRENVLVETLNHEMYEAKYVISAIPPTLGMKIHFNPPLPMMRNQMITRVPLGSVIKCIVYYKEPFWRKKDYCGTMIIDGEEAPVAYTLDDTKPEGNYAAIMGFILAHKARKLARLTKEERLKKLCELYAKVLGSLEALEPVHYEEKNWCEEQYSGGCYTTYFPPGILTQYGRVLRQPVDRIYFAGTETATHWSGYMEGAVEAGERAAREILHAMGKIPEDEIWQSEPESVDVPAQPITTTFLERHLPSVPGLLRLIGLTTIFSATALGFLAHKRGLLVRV

[6] = molecular target: Polyunsaturated fatty acid lipoxygenase ALOX15 (Homo sapiens) (UniProt P16050); test: Inhibition of Lipoxygenase 15-LO at compound concentration of 10.0 uM in the Eurofins-Panlabs enzyme assay (Eurofins_assay_199017); details: Compound concentration 10.0 uM
[7] = molecular target: T1, Beta-2 adrenergic receptor (Homo sapiens, UniProt P07550); test: Adrenoceptor reporter cell assay (ADRB2); format: functional
Target sequence in this assay (P07550 whole entry): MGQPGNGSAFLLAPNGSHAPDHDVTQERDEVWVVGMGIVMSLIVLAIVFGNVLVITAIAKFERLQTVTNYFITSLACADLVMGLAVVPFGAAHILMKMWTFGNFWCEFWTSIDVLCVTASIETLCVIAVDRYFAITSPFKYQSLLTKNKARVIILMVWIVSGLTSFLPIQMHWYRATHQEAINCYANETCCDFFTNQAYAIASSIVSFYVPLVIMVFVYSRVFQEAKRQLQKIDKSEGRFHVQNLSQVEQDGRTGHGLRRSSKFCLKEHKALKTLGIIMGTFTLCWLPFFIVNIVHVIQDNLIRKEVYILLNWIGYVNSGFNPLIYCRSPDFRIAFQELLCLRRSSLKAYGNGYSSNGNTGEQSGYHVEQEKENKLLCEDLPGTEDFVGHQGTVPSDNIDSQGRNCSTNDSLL

[8] = molecular target: Aldo-keto reductase family 1 member B1 (Rattus norvegicus) (UniProt P07943); test: Inhibition of Aldose Reductase at compound concentration of 10.0 uM in the Eurofins-Panlabs enzyme assay (Eurofins_assay_107000); parameters: substrate with concentration; details: Compound concentration 10.0 uM
[9] = molecular target: T1, Beta-2 adrenergic receptor; details: Compound concentration 10.0 uM
Target sequence in this assay (P07550 whole entry, looked up): as the sequence (P07550 whole entry) above

[10] = molecular target: Adenosine receptor A1 (Homo sapiens) (UniProt P30542); details: Compound concentration 10.0 uM
Adenosine receptor A1 (Homo sapiens), sequence (P30542 whole entry): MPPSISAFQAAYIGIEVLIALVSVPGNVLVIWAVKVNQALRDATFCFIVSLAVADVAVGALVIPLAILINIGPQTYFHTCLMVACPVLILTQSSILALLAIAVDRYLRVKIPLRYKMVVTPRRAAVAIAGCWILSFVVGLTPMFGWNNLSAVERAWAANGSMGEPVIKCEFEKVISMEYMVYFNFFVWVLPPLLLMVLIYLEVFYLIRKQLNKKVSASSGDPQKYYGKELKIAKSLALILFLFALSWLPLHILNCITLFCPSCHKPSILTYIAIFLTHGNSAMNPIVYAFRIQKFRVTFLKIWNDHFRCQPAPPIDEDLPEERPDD

[11] = molecular target: B2 bradykinin receptor (Homo sapiens) (UniProt P30411); details: Compound concentration 10.0 uM
B2 bradykinin receptor (Homo sapiens), sequence (P30411 whole entry): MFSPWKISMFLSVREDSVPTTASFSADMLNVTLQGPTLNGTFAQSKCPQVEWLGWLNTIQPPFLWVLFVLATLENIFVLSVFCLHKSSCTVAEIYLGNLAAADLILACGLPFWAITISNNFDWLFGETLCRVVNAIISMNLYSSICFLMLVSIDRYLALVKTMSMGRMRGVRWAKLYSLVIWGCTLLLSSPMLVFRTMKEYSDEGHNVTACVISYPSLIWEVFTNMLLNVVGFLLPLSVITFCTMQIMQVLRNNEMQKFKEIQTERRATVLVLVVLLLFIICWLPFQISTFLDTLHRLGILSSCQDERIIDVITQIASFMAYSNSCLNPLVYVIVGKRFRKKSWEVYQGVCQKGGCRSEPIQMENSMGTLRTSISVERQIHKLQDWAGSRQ

[12] = molecular target: D(1A) dopamine receptor (Homo sapiens) (UniProt P21728); details: Compound concentration 10.0 uM
[13] = molecular target: Endothelin receptor type B (Homo sapiens) (UniProt P24530); details: Compound concentration 10.0 uM
Endothelin receptor type B (Homo sapiens), sequence (P24530 whole entry): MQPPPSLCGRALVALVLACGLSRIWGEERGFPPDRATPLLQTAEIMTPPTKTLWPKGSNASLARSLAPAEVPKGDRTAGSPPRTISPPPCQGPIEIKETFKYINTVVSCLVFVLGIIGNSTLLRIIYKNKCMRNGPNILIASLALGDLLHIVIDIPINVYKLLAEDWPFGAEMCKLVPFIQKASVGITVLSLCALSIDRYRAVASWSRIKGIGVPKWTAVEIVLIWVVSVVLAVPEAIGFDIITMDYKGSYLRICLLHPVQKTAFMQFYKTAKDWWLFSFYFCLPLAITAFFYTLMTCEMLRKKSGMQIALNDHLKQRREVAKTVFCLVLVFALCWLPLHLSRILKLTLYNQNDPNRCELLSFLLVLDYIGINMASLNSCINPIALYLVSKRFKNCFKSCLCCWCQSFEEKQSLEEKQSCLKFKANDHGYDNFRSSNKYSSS

[14] = molecular target: Estrogen receptor (Homo sapiens) (UniProt P03372); details: Compound concentration 10.0 uM
[15] = molecular target: GABA-A receptor; anion channel (Rattus norvegicus) (UniProt O09028+P15431+P18506+P18508+P19969+P20236+P23574+P23576+P28471+P28473+P30191+P62813+P63079+P63138+Q91ZM7+Q9ES14); details: Compound concentration 10.0 uM
[16] = molecular target: Histamine H1 receptor (Homo sapiens) (UniProt P35367); details: Compound concentration 10.0 uM
[17] = molecular target: Histamine H2 receptor (Homo sapiens) (UniProt P25021); details: Compound concentration 10.0 uM
Histamine H2 receptor (Homo sapiens), sequence (P25021 whole entry): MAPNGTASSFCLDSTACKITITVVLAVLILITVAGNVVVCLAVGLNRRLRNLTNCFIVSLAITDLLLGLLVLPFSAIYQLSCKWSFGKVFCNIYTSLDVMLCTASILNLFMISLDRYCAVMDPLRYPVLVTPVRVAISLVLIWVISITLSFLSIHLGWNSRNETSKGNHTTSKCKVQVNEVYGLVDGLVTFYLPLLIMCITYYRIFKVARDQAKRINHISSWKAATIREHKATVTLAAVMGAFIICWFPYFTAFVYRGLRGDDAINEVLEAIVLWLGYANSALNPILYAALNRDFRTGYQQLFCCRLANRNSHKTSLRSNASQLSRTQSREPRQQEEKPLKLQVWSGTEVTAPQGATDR

[18] = molecular target: Muscarinic acetylcholine receptor M1 (Homo sapiens) (UniProt P11229); details: Compound concentration 10.0 uM
[19] = molecular target: T2, Muscarinic acetylcholine receptor M2 (Homo sapiens) (UniProt P08172); details: Compound concentration 10.0 uM
T2 sequence (whole entry): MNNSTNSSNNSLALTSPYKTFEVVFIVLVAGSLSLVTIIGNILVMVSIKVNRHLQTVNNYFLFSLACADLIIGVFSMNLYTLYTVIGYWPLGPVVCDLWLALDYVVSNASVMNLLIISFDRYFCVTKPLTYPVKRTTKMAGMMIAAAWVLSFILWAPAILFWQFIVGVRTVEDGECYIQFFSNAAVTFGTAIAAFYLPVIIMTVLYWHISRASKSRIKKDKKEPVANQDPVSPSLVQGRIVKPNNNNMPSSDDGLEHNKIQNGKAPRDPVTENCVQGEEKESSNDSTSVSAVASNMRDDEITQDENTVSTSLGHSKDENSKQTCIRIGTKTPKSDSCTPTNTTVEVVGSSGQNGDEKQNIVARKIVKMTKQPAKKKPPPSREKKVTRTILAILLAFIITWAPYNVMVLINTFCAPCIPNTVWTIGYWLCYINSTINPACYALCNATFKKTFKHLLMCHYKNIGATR

[20] = molecular target: Muscarinic acetylcholine receptor M3 (Homo sapiens) (UniProt P20309); details: Compound concentration 10.0 uM
[21] = molecular target: Kappa-type opioid receptor (Homo sapiens) (UniProt P41145); details: Compound concentration 10.0 uM
[22] = molecular target: Mu-type opioid receptor (Homo sapiens) (UniProt P35372); details: Compound concentration 10.0 uM
[23] = molecular target: Purinergic P2Y (Rattus norvegicus) (UniProt O35811+Q9EPX4+P49651+Q63371+P41232+O35881+Q6GUG4); details: Compound concentration 10.0 uM
[24] = molecular target: Sodium-dependent dopamine transporter (Homo sapiens) (UniProt Q01959); details: Compound concentration 10.0 uM
Sodium-dependent dopamine transporter (Homo sapiens), sequence (Q01959 whole entry): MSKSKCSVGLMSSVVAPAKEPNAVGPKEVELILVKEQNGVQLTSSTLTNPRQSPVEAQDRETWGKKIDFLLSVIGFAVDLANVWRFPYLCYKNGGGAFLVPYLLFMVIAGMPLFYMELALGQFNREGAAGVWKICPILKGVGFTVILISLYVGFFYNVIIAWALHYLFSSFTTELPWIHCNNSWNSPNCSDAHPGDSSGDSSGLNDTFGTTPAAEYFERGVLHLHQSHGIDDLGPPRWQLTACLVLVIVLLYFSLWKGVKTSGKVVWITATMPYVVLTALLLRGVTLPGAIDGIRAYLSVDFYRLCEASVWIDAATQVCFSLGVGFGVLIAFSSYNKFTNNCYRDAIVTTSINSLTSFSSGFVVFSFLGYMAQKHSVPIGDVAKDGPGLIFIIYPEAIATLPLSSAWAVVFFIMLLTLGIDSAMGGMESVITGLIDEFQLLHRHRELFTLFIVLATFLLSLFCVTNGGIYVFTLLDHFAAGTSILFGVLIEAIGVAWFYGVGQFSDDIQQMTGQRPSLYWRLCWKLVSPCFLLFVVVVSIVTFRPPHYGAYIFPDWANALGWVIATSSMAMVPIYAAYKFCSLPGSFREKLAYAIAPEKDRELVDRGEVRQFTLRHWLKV

[25] = molecular target: Glucocorticoid receptor (Homo sapiens) (UniProt P04150); details: Compound concentration 10.0 uM
[26] = molecular target: Type-2 angiotensin II receptor (Homo sapiens) (UniProt P50052); details: Compound concentration 10.0 uM
[27] = molecular target: D(2) dopamine receptor (Homo sapiens, UniProt P14416); details: Compound concentration 10.0 uM
[28] = molecular target: Glutamate receptor 2 (Homo sapiens) (UniProt P42262); details: Rattus norvegicus; Compound concentration 10.0 uM
Glutamate receptor 2 (Homo sapiens), sequence (P42262 whole entry): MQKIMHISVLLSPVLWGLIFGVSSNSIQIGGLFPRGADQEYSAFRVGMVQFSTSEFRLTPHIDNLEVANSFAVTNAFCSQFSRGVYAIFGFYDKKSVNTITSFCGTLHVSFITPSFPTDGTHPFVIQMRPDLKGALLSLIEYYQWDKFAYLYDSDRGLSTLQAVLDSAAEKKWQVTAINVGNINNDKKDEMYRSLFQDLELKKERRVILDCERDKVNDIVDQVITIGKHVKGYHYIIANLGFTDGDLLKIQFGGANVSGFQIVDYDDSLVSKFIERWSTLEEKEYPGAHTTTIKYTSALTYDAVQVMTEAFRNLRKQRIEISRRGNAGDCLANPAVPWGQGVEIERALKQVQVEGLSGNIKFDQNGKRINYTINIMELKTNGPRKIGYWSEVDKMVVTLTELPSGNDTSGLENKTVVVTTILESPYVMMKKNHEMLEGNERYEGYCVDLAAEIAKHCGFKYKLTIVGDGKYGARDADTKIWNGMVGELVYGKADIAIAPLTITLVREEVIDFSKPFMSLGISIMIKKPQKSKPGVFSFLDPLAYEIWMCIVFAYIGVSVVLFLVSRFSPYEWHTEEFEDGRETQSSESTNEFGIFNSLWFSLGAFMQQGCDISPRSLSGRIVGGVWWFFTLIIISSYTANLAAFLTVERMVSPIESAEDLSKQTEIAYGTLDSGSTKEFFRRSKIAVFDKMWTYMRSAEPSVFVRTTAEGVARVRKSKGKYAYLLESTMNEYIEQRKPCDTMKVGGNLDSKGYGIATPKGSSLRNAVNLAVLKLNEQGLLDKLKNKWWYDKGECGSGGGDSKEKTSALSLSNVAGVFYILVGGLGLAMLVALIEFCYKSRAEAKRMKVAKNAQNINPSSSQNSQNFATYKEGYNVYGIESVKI

[29] = molecular target: Vasopressin V1a receptor (Homo sapiens) (UniProt P37288); details: Compound concentration 10.0 uM
[30] = molecular target: Cannabinoid receptor 2 (Homo sapiens) (UniProt P34972); details: Compound concentration 10.0 uM
[31] = molecular target: Gamma-aminobutyric acid type B receptor subunit 1 (Homo sapiens) (UniProt Q9UBS5); details: Rattus norvegicus; Compound concentration 10.0 uM
[32] = molecular target: Glutamate receptor ionotropic, kainate (Rattus norvegicus) (UniProt P22756+Q01812+P42260+P42264+Q63273); details: Compound concentration 10.0 uM
[33] = molecular target: Sodium-dependent dopamine transporter (Homo sapiens) (UniProt Q01959); details: Compound concentration 10.0 uM; remark: listed apart in the source

Structure (SMILES): CNc1cc[n+](CCNC(=O)c2ccn3c(-c4c(C)noc4C)cnc3c2)cc1
inhibition [1]: 9.4%
inhibition [2]: 3%
inhibition [3]: 3.4%
inhibition [4]: -8.2%
inhibition at 60 min, 10 µM [5]: 6% (not active)
inhibition [6]: -0.5%
IC50 [7]: > 10 µM (not active)
inhibition [8]: -1.7%
inhibition [9]: -4.49%
inhibition [10]: 1.2%
inhibition [11]: -1.8%
inhibition [12]: -6.7%
inhibition [13]: -2.3%
inhibition [14]: 6.2%
inhibition [15]: -1.9%
inhibition [16]: 0.5%
inhibition [17]: -0.4%
inhibition [18]: -4.1%
inhibition [19]: 6.4%
inhibition [20]: -0.2%
inhibition [21]: 0.5%
inhibition [22]: 0.1%
inhibition [23]: 10.6%
inhibition [24]: 20.3%
inhibition [25]: 1.3%
inhibition [26]: 4.1%
inhibition [27]: -1.6%
inhibition [28]: -1.1%
inhibition [29]: -2.3%
inhibition [30]: -3.8%
inhibition [31]: 2.1%
inhibition [32]: 0.2%

inhibition [33]: -3.28%
Structure (SMILES): Cc1noc(C)c1-c1cnc2cc(C(=O)NCCC[n+]3ccc(N(C)C)cc3)ccn12
